From PMC9975351 (Frontiers in Pharmacology, 2023)

Key:
[1] = target: CYP2D6 (Homo sapiens, UniProt P10635); format: in vitro ADME; set-up: purchased Cypex (Dundee, UK); host or cells: bactosomes (bacterial membranes); conditions: 1 µM, 50 pmol/mL recombinant CYP2D6, NADPH, 60 min, vs control
Method: Reactions were conducted in triplicate using 0.1 M PPB (pH 7.4) in eight-well tube strips in an 8 × 12 rack. […] The mixture was pre-incubated at 37°C with shaking at approximately 100 rpm for 5 min. Reactions were initiated by the addition of the NADPH-regenerating system and quenched with 200 µL ice-cold acetonitrile containing 50 nM CBZ. The samples were centrifuged at 1,000 × g and 4°C for 20 min, and the supernatants were subjected to LC-QTOF HRMS. […] The reaction was incubated, initiated, terminated, centrifuged then analyzed using the same method described above.
Reaction phenotyping is the identification of isoforms involved in drug metabolism and is important for the decipherment of drug biotransformation pathways and understanding of possible drug-drug interactions. M6, M7, and M8 were also detected in recombinant CYP incubations.

[2] = test system: CYP2D6; assay: Metabolic stability in Silensome CYP2D6 (CYP2D6 contribution); format: in vitro ADME, human; conditions: human
Method: (§1) Metabolic stability of GRL 0617 and formation of M1 and M3 were evaluated using Silensome control, Silensome CYP2D6 and Silensome CYP3A4 incubated with 1 or 10 µM GRL 0617 in the presence of NADPH. Other metabolites were detected less than 1% of parent. […] CYP2D6 played an exclusive role in the formation of M2, but the reactions were not saturated in the concentration range used in this study and thus, the calculated Kcat, and Km were out of the experiment condition.
(§2) In addition, the contribution of specific isoform using Silensomes were evaluated, and calculated parameters were shown in Supplemental Figure S4 and Table 4. […] The contribution of specific CYP 3A4 or CYP2D6 was calculated to be 79.6% or 21.8%, respectively, using equation as equation below. Calculated % CYP isoform contribution = CLintcontrol−ClintINH ⁄ CLintcontrol ([Bohnert et al., 2016]).
(§3) incubated in Silensome control, Silensome CYP2D6, and Silensome CYP3A4 with NADPH for 0, 10,
(§4) 15, 30, 45, 60, or 120 min. The remaining percentages of GRL 0617 are expressed as mean ± SD (n=3).
(§5) (1 picture or pasted object on this page, not shown here)

[3] = test system: Silensome CYP2D6; assay: as above; format: in vitro ADME, human; conditions: (CLint control − CLint INH)/CLint control
Method: as §1, §2, §3, §4, §5

[4] = test system: CYP3A4/3A5; assay: Metabolic stability in Silensome CYP3A4 (CYP3A4/3A5 contribution); format: in vitro ADME, human; conditions: human
Method: as §1, §2
(§6) CYP3A4/5 metabolizes various chemicals composed of large, lipophilic molecules with diverse structures, and >50% of all prescribed drugs undergo CYP3A4 metabolism ([Zanger and Schwab, 2013]). CYP3A4-related drug interaction studies are critical for the prediction of drug–drug interactions in the clinic ([Prueksaritanont et al., 2013]). […] Thus, Silensome 3A4 represented contribution of both CYP3A4 and CYP3A5, compared with control Silensome. CYP3A5 expression in the liver differs between Africans/African Americans and Caucasians. […] CYP2D6 is a highly polymorphic gene involved in drug metabolism ([Ingelman-Sundberg et al., 2007]). […] Indeed, CYP2D6 metabolized the naphthalene side ring through hydroxylation, which is not linked to M1–M3 dehydration.
as §3, §4, §5

[5] = test system: Silensome CYP3A4/3A5; assay: as above; format: in vitro ADME, human; conditions: (CLint control − CLint INH)/CLint control
Method: as §1, §2, §6, §3, §4, §5

[6] = target: T1, CYP2A6 (Homo sapiens, UniProt P11509); assay: CYP cocktail inhibition assay in pooled HLMs, CYP2A6; conditions: substrate cocktail
T1 sequence (P11509 1-494): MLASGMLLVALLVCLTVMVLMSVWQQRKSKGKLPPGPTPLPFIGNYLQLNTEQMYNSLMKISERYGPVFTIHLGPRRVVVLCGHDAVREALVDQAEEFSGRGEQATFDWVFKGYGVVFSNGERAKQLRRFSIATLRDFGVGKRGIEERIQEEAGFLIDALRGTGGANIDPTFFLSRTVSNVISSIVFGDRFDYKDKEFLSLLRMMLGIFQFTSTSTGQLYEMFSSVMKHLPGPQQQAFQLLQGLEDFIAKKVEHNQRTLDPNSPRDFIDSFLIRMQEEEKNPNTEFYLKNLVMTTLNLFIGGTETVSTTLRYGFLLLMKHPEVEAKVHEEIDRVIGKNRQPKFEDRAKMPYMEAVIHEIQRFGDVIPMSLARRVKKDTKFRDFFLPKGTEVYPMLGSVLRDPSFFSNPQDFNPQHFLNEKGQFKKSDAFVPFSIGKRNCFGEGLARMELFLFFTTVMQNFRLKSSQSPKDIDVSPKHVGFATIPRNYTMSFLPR
Method: (§7) The drug–drug interaction potential was evaluated using a CYP cocktail assay that involved microsomal incubation and NADPH, as described elsewhere ([Lee et al., 2012]). […] The first reactions were initiated by NADPH addition, and each mixture was incubated in a shaking water bath at 37°C for 30 min. The final incubation was performed for 10 min with a total volume of 200 µL by adding substrates (tolbutamide (set B) as a CYP2C9 selective substrate, midazolam (set A) and testosterone (set B) as CYP3A4 selective substrates) and NADPH. The reaction was stopped and quenched by adding 200 µL of ice-cold acetonitrile containing 50 nM CBZ as internal standard, then centrifuged at 3,000 x g for 20 min. The supernatants were injected in LC-QTOF system. IC50 shift values were calculated as the ratio of the IC50 value obtained after pre-incubation without NADPH divided by the IC50 value obtained after 30 min incubation with NADPH.
(§8) The LC-QTOF system consisted of an Exion AD LC device (AB Sciex, Framingham, MA, United States) and a TripleTOF 6,600 + system (AB Sciex) equipped with an IonDrive Turbo V source operated in positive TOF information-dependent acquisition (IDA) MS2 scan mode. The TOF scan dwell time was 50 ms, and the 20 × IDA MS2 scan time was acquired with a 30-ms dwell time. […]

[7] = target: CYP2E1 (Homo sapiens, UniProt P05181); assay: CYP cocktail inhibition assay in pooled HLMs, CYP2E1; conditions: substrate cocktail
Method: as §7, §8

Chain of CYP2E1 (P05181 whole entry): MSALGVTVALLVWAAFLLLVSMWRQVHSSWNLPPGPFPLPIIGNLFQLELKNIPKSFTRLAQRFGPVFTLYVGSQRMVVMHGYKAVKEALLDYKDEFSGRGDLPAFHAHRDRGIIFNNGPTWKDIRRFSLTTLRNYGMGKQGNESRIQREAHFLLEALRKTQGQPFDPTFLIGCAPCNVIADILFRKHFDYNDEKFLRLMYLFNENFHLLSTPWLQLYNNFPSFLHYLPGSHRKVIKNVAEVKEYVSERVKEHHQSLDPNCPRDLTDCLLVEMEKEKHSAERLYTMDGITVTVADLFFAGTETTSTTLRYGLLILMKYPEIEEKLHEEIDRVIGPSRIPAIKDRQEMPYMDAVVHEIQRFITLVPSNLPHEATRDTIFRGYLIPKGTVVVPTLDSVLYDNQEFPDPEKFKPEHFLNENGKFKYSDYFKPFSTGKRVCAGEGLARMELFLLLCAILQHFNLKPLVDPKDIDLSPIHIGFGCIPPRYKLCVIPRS
Chain of CYP2D6 (Homo sapiens, UniProt P10635) (P10635 whole entry): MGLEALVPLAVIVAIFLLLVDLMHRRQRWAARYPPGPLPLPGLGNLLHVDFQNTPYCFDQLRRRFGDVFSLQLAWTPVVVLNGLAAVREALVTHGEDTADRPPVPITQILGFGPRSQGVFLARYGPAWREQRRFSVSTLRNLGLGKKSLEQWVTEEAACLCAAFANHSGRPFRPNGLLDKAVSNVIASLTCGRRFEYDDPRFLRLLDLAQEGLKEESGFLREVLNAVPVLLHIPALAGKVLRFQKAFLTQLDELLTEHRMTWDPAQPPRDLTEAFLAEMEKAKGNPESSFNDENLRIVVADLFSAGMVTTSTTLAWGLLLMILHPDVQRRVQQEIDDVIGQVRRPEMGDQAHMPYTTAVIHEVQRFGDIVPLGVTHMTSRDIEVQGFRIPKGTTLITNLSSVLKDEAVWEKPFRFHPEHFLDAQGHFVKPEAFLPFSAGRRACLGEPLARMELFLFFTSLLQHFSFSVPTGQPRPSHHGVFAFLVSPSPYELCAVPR

Cc1ccc(N)cc1C(=O)N[C@H](C)c1cccc2ccccc12 [GRL0617, 5-amino-2-methyl-N-[(1R)-1-(1-naphthalenyl)ethyl]benzamide]
GRL0617 level remaining [1]: 71.46% ± 3.1%
half-life at 1 µM [2]: 22.3 min
microsomal CLint at 1 µM ([2]; Silensome CYP2D6 with NADPH, read-out: Intrinsic clearance (in vitro) Clint): 31.2 µL/min/mg
Contribution of CYP2D6 to metabolism [3]: 21.8%
half-life at 1 µM [4]: 85.1 min
microsomal CLint at 1 µM ([4]; Silensome CYP3A4/3A5 with NADPH, read-out: Intrinsic clearance (in vitro) Clint): 8.14 µL/min/mg
Contribution of CYP3A4 (CYP3A4/3A5) to metabolism [5]: 79.6%
Concentrations at which CYP2A6 was inhibited [6]: ≥ 50 µM
Concentrations at which CYP2E1 was inhibited [7]: ≥ 50 µM
